Patent publication US11299501B2 (BRISTOL-MYERS SQUIBB COMPANY, priority 2017, dated 2022)

What was measured:
Assay type in all cases: cell-based
human TLR9 = biological target: T1, human TLR9 (Homo sapiens, UniProt Q9NR96); test: TLR9 inhibition reporter assay (HEK-Blue SEAP); conditions: cells overexpressing human TLR9, SEAP reporter, stimulated with ODN2006 5 nM, 22 hour incubation
T1 construct: host or cells: HEK-Blue cells
T1 sequence (Q9NR96 26-1032): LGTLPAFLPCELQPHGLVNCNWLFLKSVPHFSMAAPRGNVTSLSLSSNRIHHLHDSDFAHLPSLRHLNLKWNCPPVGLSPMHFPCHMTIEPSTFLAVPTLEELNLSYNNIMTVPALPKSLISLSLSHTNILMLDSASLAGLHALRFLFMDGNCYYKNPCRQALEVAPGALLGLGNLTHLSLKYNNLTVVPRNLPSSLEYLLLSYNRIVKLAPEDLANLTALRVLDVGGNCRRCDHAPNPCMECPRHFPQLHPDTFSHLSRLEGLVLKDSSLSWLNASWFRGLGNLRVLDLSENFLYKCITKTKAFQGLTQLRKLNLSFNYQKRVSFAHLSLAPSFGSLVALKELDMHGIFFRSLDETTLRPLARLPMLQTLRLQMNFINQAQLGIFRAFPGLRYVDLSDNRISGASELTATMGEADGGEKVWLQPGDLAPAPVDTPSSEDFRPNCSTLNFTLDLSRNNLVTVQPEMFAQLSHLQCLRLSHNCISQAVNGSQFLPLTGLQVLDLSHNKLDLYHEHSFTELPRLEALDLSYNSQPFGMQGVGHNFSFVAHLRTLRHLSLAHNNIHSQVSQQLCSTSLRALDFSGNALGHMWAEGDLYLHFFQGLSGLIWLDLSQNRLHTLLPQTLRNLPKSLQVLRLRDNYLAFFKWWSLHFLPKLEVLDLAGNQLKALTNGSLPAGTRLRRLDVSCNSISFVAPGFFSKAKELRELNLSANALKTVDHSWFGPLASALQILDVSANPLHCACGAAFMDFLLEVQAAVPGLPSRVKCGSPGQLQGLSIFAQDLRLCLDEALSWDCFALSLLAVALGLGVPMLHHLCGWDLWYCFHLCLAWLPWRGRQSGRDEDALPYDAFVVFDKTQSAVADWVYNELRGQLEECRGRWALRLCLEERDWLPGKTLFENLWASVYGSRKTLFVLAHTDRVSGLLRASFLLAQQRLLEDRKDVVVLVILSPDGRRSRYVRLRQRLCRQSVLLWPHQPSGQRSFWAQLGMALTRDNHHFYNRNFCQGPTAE
Experimental: (§1) TLR7/8/9 Inhibition Reporter Assays
(§2) […] (Invivogen) overexpressing human TLR7, TLR8 or TLR9 receptors were used for screening inhibitors of these receptors using an inducible SEAP (secreted embryonic alkaline phosphatase) reporter gene under the control of the IFN-β minimal promoter fused to five NF-κB and AP-1-binding sites. Briefly, cells are seeded into Greiner 384 well plates (15000 cells per well for TLR7, 20,000 for TLR8 and 25,000 for TLR9) and then treated with test compounds in DMSO to yield a final dose response concentration range of 0.05 nM-50 μM. After a 30 minute compound pre-treatment at room temperature, the cells are then stimulated with a TLR7 ligand (gardiquimod at a final concentration of 7.5 μM). TLR8 ligand (R848 at a final concentration of 15.9 μM) or TLR9 ligand (ODN2006 at a final concentration of 5 nM) to activate NF-κB and AP-1 which induce the production of SEAP. After a 22 hour incubation at 37° C., 5% CO2, SEAP levels are determined with the addition of HEK-Blue™ Detection reagent (Invivogen), a cell culture medium that allows for detection of SEAP, according to manufacturer's specifications. The percent inhibition is determined as the % reduction in the HEK-Blue signal present in wells treated with agonist plus DMSO alone compared to wells treated with a known inhibitor.

human TLR7 = biological target: T2, human TLR7 (Homo sapiens, UniProt Q9NYK1); test: TLR7 inhibition reporter assay (HEK-Blue SEAP); conditions: cells overexpressing human TLR7, SEAP reporter, stimulated with gardiquimod 7.5 μM, 22 hour incubation
T2 construct: host or cells: HEK-Blue cells
T2 sequence (Q9NYK1 27-1049): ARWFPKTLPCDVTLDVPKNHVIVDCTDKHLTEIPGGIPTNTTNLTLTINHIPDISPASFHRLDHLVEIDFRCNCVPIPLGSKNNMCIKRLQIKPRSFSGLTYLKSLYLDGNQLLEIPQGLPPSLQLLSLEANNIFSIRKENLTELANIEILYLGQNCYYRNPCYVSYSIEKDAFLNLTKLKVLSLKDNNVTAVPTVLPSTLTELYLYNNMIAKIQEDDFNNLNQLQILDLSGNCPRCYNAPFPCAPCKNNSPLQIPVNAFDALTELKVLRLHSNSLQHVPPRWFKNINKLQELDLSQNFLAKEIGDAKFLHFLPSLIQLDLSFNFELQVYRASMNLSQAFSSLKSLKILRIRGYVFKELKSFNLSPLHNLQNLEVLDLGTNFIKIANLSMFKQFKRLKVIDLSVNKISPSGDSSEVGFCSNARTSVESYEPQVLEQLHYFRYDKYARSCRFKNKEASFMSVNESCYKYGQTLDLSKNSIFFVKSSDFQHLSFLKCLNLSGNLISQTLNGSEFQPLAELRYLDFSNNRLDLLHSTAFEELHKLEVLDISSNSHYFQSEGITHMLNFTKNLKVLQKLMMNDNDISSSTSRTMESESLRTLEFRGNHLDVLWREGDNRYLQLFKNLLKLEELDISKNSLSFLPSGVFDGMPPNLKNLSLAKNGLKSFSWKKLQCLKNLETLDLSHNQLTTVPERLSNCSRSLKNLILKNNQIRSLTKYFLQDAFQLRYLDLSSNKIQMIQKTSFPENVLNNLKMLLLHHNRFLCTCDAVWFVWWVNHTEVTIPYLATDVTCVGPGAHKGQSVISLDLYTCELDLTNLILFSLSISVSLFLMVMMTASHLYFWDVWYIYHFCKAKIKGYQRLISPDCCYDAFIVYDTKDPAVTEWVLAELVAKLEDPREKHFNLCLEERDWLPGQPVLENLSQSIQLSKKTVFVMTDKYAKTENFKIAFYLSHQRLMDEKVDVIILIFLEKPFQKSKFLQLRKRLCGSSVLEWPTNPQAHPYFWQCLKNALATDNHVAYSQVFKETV
Experimental: as §1, §2

human TLR8 = biological target: T3, human TLR8 (Homo sapiens, UniProt Q9NR97); test: TLR8 inhibition reporter assay (HEK-Blue SEAP); conditions: cells overexpressing human TLR8, SEAP reporter, stimulated with R848 15.9 μM, 22 hour incubation
T3 construct: host or cells: HEK-Blue cells
T3 sequence (Q9NR97 27-1041): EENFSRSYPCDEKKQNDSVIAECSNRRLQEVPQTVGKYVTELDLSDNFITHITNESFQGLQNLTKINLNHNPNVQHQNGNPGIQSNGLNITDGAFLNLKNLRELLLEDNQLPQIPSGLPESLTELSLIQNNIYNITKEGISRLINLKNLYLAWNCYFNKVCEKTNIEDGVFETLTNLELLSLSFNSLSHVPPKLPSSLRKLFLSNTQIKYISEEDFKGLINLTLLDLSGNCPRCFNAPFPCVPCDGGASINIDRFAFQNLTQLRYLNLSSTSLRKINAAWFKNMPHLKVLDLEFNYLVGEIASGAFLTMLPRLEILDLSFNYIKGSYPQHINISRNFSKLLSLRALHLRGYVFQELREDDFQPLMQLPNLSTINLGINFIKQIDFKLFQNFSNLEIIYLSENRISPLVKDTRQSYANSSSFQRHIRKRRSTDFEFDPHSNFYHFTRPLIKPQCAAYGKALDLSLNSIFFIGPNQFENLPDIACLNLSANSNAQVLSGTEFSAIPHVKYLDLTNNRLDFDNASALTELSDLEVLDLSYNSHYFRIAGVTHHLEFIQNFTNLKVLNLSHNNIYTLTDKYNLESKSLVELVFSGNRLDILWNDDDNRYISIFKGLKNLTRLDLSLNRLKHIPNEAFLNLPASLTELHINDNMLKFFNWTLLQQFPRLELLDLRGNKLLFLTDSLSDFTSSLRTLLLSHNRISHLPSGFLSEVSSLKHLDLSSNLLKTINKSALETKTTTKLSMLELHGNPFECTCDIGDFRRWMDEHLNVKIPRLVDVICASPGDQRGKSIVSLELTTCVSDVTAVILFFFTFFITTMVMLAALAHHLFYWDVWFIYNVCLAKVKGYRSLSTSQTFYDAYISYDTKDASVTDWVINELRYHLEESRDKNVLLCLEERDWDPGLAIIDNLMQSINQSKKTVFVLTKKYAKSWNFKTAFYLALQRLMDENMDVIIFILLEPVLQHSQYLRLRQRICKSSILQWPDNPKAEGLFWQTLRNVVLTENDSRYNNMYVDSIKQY
Experimental: as §1, §2

Row | Compound | IC50 (human TLR9) [nM] | IC50 (human TLR7) [nM] | IC50 (human TLR8) [nM]
1 | Cc1c(-c2[nH]c3cnc(C4CCN(C5CCOCC5)CC4)nc3c2C(C)C)cn2ncnc2c1C [Example 13, 6-(7-isopropyl-2-(1-(tetrahydro-2H-pyran-4-yl)piperidin-4-yl)-5H-pyrrolo[3,2-d]pyrimidin-6-yl)-7,8-dimeihyl-[1,2,4]triazolo[1,5-a]pyridine] | 1000 to 50000 | < 100 | < 100
2 | COc1cc(-c2[nH]c3cnc(C4CCN(C5COC5)CC4)nc3c2C(C)C)cn2ncnc12 [Example 14, 6-(7-isopropyl-2-(1-(oxetan-3-yl)piperidin-4-yl)-5H-pyrrolo[3,2-d]pyrimidin-6-yl)-8-methoxy-[1,2,4]triazolo[1,5-a]pyridine] | 1000 to 50000 | < 100 | < 100
3 | COc1cc(-c2[nH]c3cnc(C4CCN(CC(C)(C)O)CC4)nc3c2C(C)C)cn2ncnc12 [Example 15, 1-(4-(7-isopropyl-6-(8-methoxy-[1,2,4]triazolo[1,5-a]pyridin-6-yl)-5H-pyrrolo[3,2-d]pyrimidin-2-yl)piperidin-1-yl)-2-methylpropan-2-ol] | 1000 to 50000 | < 100 | < 100
4 | COc1ccc(-c2[nH]c3cnc(C4CCNCC4)nc3c2C(C)C)cc1OC [Example 17, 6-(3,4-dimethoxyphenyl)-7-isopropyl-2-(piperidin-4-yl)-5H-pyrrolo[3,2-d]pyrimidine] | 100 to 1000 | < 100 | < 100
5 | COc1ccc(-c2[nH]c3cnc(C4CCN(C(=O)CN(C)C)CC4)nc3c2C(C)C)cc1OC [Example 18, 1-(4-(6-(3,4-dimethoxyphenyl)-7-isopropyl-5H-pyrrolo[3,2-d]pyrimidin-2-yl)piperidin-1-yl)-2-(dimethylanino)ethan-1-one] | 100 to 1000 | < 100 | 100 to 1000
6 | Cc1c(-c2[nH]c3cnc(C4CCN(C5COC5)CC4)nc3c2C(C)C)cn2ncnc2c1C [Example 19, 6-(7-isopropyl-2-(1-(oxetan-3-yl)piperidin-4-yl)-5H-pyrrolo[3,2-d]pyrimidin-6-yl)-7,8-dimethyl-[1,2,4]triazolo[1,5-a]pyridine] | 1000 to 50000 | < 100 | < 100
7 | Cc1cc(-c2[nH]c3cnc(C4CCN(CC(C)(C)O)CC4)nc3c2C(C)C)cn2ncnc12 [Example 20, 1-(4-(7-isopropyl-6-(8-methyl-[1,2,4]triazolo[1,5-a]pyridin-6-yl)-5H-pyrrolo[3,2-d]pyrimidin-2-yl)piperidin-1-yl)-2-methylpropan-2-ol] | 1000 to 50000 | < 100 | < 100
8 | Cc1cc(-c2[nH]c3cnc(C4CCN(C5COC5)CC4)nc3c2C(C)C)cn2ncnc12 [Example 24, 6-(7-isopropyl-2-(1-(oxetan-3-yl)piperidin-4-yl)-5H-pyrrolo[3,2-d]pyrimidin-6-yl)-8-methyl-[1,2,4]triazolo[1,5-a]pyridine] | 1000 to 50000 | < 100 | < 100

The next lines start with the values.

Row | IC50 (human TLR9) [nM] | IC50 (human TLR7) [nM] | IC50 (human TLR8) [nM] | Compound
9 | 100 to 1000 | < 100 | < 100 | Cc1cc(-c2[nH]c3cnc(C4CCN(C5CCOCC5)CC4)nc3c2C(C)C)cn(C)c1=O [Example 21, 5-(7-isopropyl-2-(1-(tetrahydro-2H-pyran-4-yl)piperidin-4-yl)-5H-pyrrolo[3,2-d]pyrimidin-6-yl)-1,3-dimethylpyridin-2(1H)-one]
10 | 100 to 1000 | < 100 | < 100 | COc1ccc(-c2[nH]c3cnc(C4CCN(C5CCN(C(C)C)CC5)CC4)nc3c2C(C)C)cc1OC [Example 22, 6-(3,4-dimedioxyphenyl)-7-isopropyl-2-(1′-isopropyl-[1,4′-bipiperidin]-4-yl)-5H-pyrrolo[3,2-d]pyrimidine]
11 | 100 to 1000 | 100 to 1000 | < 100 | CCc1c(-c2ccnc(C)c2)[nH]c2cnc(C3CCN(C4CCN(C(C)C)CC4)CC3)nc12 [Example 23, 7-ethyl-2-(1′-isopropyl-[1,4′-bipiperidin]-4-yl)-6-(2-methylpyridin-4-yl)-5H-pyrrolo[3,2-d]pyrimidine]
12 | 100 to 1000 | 100 to 1000 | 100 to 1000 | CCc1c(-c2ccnc3[nH]ncc23)[nH]c2cnc(C3CCN(C4CCN(C(C)C)CC4)CC3)nc12 [Example 25, 4-(7-ethyl-2-(1′-isopropyl-[1,4′-bipiperidin]-4-yl)-5H-pyrrolo[3,2-d]pyrimidin-6-yl)-1H-pyrazolo[3,4-b]pyridine]
